What all share (type): cell-based, human
Test [1] deals with SK-BR-3 cells. As to the kind of experiment: Immunoblotting of cell lysates, SK-BR-3. Here is the method: (§1) Cells cultured to near confluence in 6 well plates were treated with lapatinib, HRG-β1 or antibodies as for proliferation assays. Following one or 24 hours incubation, cells were lysed using RIPA buffer (50 mM Tris, 150 mM NaCl, 0.5% sodium deoxycholate, 1% Triton X-100, 0.1% sodium dodecyl sulfate, 2 ug/mL aprotinin, 2 ug/mL leupeptin, 1 ug/mL pepstatin A, and 0.4 mg/mL pefabloc SC PLUS). Lysates were centrifuged for 20 minutes at 14,600 rpm at 4° C. and supernatants were collected. Protein concentrations in each lysate were determined using the BCA protein assay reagent (Pierce, catalog no. 23223). Total lysates were fractionated by SDS-PAGE and transferred onto polyvinylidene difluoride (PVDF) membranes (Millipore, catalog no. IPVH00010) or nitrocellulose membranes (Bio-Rad, catalog no 162.0145). Membranes were incubated with 5% bovine serum albumin in Tris-buffered saline with 0.1% Tween (TBST, pH 8.0) for 1 hour following transfer to block non-specific binding sites. Blocked membranes were incubated with primary antibodies overnight at 4° C. with agitation. Prior to incubation with the secondary antibodies conjugated to horseradish peroxidase, blots were washed three times (10 minutes/wash) with TB ST. Following incubation with secondary antibodies for 1 hour and washing, bound secondary antibody was detected using chemiluminescent detection regent (GE Healthcare, catalog no. RPN 2209/AF).
(In general: In western blotting, separated proteins are transferred to a membrane and probed.)

Test [2] relates to SK-BR-3 cells. Kind of test: Proliferation assay (MTS), SK-BR-3. The following applies: 5 days. How it is done:
(§2) Cells were plated in 96 well plates at a density of 2,500 cells per well and incubated overnight. […] Antibodies were used at a concentration of 50 nM unless otherwise indicated. Dimethyl sulfoxide or phosphate buffered saline (PBS) were used as vehicle controls for lapatinib or HRG-β1/antibodies, respectively. After 5 days of incubation in a 37° C. 5% CO2 incubator, cell proliferation was quantitated using CellTiter 96 AQeous One Solution Proliferation Assay kit (Promega, catalog no. G3580) according to the manufacturer's instructions.

Test [3] deals with SK-BR-3 cells. As to the kind of experiment: Flow cytometry of cell surface HER2 and HER3, SK-BR-3. The note with it: 1 μM lapatinib, 24 hours. Here is the method: (§3) Cells were treated with 1 μM lapatinib (Lap), medium (Med) or vehicle control (DMSO) for 24 hours.
(§4) The methodology used to determine HER2 and HER3 levels by flowcytometry is as follows, unless otherwise indicated. Antibodies were labeled with either Alexa Fluor® 647 carboxylic acid, succinimidyl ester (Life Technologies, Catalog # A-20173) or Alexa Fluor® 488 carboxylic acid, succinimidyl ester (Life Technologies, Catalog # A-10235) using methods recommended by the manufacturer. Following the labeling reaction, antibodies were extensively dialyzed against PBS to remove unincorporated Alexa dye. Cells were seeded at a density of 100,000 cells per well in 24 well plates, incubated overnight, and subsequently treated with either 1 μM lapatinib or vehicle control (DMSO) for 24 hours at 37° C. in a CO2 incubator. […] Following incubation, cells were trypsinized, washed, and suspended in PBS. Stained cells were analyzed using a BD FACScalibur and data processed using FlowJo (Tree Star).

Test [4] has as its system BT-474 cells. As to the kind of experiment: Flow cytometry of cell surface HER2 and HER3, BT-474. The note with it: 1 μM lapatinib, 24 hours. How it is done:
as §3, §4
For orientation: Flow cytometry measures light scatter and fluorescence of single cells or particles in a stream.

For test [5], the system named is BT-474 cells. As to the kind of experiment: Immunoblotting of cell lysates, BT-474. Here is the method:
as §1

Test [6] has as its system BT-474 cells. As to the kind of experiment: Proliferation assay (MTS), BT-474. The following applies: 5 days. How it is done:
as §2

In test [7] the test system is HCC1419 cells. As to the kind of experiment: Proliferation assay (MTS), HCC1419. The following applies: 5 days. Here is the method:
as §2

Test [8] relates to SK-BR-3 cells. As to the kind of experiment: Fluorescence microscopy of intracellular trafficking. The following applies: 50 nM. The source says:
The combined pulse plus chase times are indicated on the left margin. Anti-HER3 or HER2/HER3 antibodies were detected with Alexa 555-labeled secondary antibody (pseudocolored red in overlay) and anti-EEA-1 antibody with Alexa 647-labeled secondary antibody (pseudocolored green in overlay). […] Scale bars=2 μm.
Cells were fixed, permeabilized and stained for LAMP-1. Anti-HER3 or HER2/HER3 antibodies were detected with Alexa 555-labeled secondary antibody (pseudocolored red in overlay) and anti-LAMP-1 antibody with Alexa 488-labeled secondary antibody (pseudocolored green in overlay). […] Scale bars=2 μm.
For fixation, cells were treated with 1.7% (w/v) paraformaldehyde for 10 minutes at 37° C. and then permeabilized with 0.05% (v/v) saponin for 10 minutes at room temperature in PBS. […] After blocking for 30 minutes with goat serum (Sigma-Aldrich, catalog no. G6767), bound primary antibodies were detected by incubating cells with the following secondary antibody conjugates for 25 minutes at room temperature: Alexa 555-labeled goat anti-human IgG (H+L) (Life Technologies, catalog no. A21433), Alexa 647-labeled goat anti-mouse IgG (H+L) (Life Technologies, catalog no. A21236) and Alexa 488-labeled goat anti-rabbit IgG (H+L) (Life Technologies, catalog no. A11034). […]

Where [9] appears, read: 1 μM lapatinib + heregulin 6.25 nM.
[10] abbreviates: lapatinib 50 nM-1 μM, no heregulin.
Setting [11] is: 50 nM antibody + heregulin 6.25 nM.
Where [12] appears, read: 50 nM antibody, one hour, versus trastuzumab, pertuzumab, TAb6 or PAb6, not sustained at 24 hours.
Setting [13] is: 50 nM antibody + 1 μM lapatinib + heregulin 6.25 nM.
[14] abbreviates: 50 nM antibody, no heregulin, no lapatinib.

`CS(=O)(=O)CCNCc1ccc(-c2ccc3ncnc(Nc4ccc(OCc5cccc(F)c5)c(Cl)c4)c3c2)o1` [lapatinib, reference compound]: the “inhibition of HER3, Akt and Erk phosphorylation, lapatinib plus heregulin” value in test [1] (setting [9]) and in test [5] (setting [9]) was “partially reversed” in each case. Besides, the “HER3, Akt and Erk phosphorylation, lapatinib alone” value in test [1] (1 μM lapatinib, 1 or 24 hours) is reported as “potent inhibition”; in test [5] (1 μM lapatinib, 1 or 24 hours) it was “potent inhibition”. Also, the “proliferation, lapatinib alone” value in test [2] (setting [10]) and in test [6] (setting [10]) was “inhibition of proliferation” each time. The “proliferation, lapatinib plus heregulin” value in test [2] (lapatinib + heregulin 6.25 nM) and in test [6] (lapatinib + heregulin 6.25 nM) was “growth inhibition was ablated” in each case. Besides, the “HER2 levels on the plasma membrane” value in test [3] is given as “upregulation”; in test [4], “not upregulated”. The “HER3 levels on the plasma membrane” value in test [3] and in test [4] was “upregulation” throughout.
Turning to heregulin [reference compound], the “proliferation in the presence of heregulin alone” value is reported as “reduced proliferation” in test [2] (setting [11]), “increased proliferation” in test [7] (heregulin 6.25 nM) and “trend towards heregulin-stimulated proliferation” in test [6] (heregulin 6.25 nM).

B1: Ab6: bivalent anti-HER3 antibody which competes with heregulin for binding to HER3 (antibody, V domains shown)
VH: QVQLLESGGGLVQPGGSLRLSCAASGFTFSHYVMAWVRQAPGKGLEWVSSISSSGGWTLYADSVKGRFTISRDNSKNTLYLQMNSLRAEDTAVYYCTRGLKMATIFDYWGQGTLVTVSS
VL: DIQLTQPASVSGSPGQSITISCTGTSSDVGSYNVVSWYQQHPGKAPKLIIYEVSQRPSGVSNRFSGSKSGNTASLTISGLQTEDEADYYCCSYAGSSIFVIFGGGTKVTVL
As to B1, the “pAkt levels in the presence of heregulin” value in test [1] (50 nM antibody + heregulin 6.25 nM, 24 hours) was “a reduction”. The “pErk levels at one hour” value in test [1] (setting [12]) and in test [5] (setting [12]) was “lower” throughout. Besides, the “proliferation in the presence of heregulin and lapatinib” value in test [2] (setting [13]), in test [7] (setting [13]) and in test [6] (setting [13]) was “anti-proliferative effects” in each case. Moreover, the proliferation entry in test [2] (setting [14]) is “reduced proliferation”; in test [7] (setting [14]), “reduced proliferation”; in test [6] (setting [14]), “the effects were not significant”. In addition, the “proliferation in the presence of heregulin” value in test [7] (setting [11]) and in test [6] (setting [11]) was “ablated the inhibitory effects” in each case. Also, the “localization following 15 minutes of treatment” value in test [8] is “internalized into early endosomes”. In addition, the “localization within one hour of treatment” value in test [8] (15 minutes pulse, 45 minutes chase) is reported as “present in LAMP-1+ lysosomes”.

The values above are taken from patent US10519247B2, “Targeting HER2 and HER3 with bispecific antibodies in cancerous cells” (Board of Regents, The University of Texas System, priority 2013, dated 2019).
